Data on two substances can be found in US4606856A, “[Des-1-amino, 8-glycine]calcitonin” (priority 1985, dated 1986).

Assay [1] concerns serum calcium concentration. The assay is described as follows: Biological assay of calcitonin analogs in vivo: reduction of serum calcium concentration, 2×2 parallel line assay. To be noted: rats, subcutaneous injection, serum calcium 1 hour later, compared with synthetic salmon calcitonin standard.
Protocol: Rats were divided into four groups of seven animals, and each group was assigned at random to a dose of standard or test solution. Low and high doses were chosen from the linear portion of the dose-response curve. For the salmon calcitonin standard, the values were 0.7 and 2.1 ng. peptide/100 g. body weight (BW). This dose approximates 3 and 9 MU/100 g. BW. Peptides were given by subcutaneous injection (0.2 ml/100 g. BW) and blood was withdrawn 1 hour later for serum calcium determination. Sera are processed and analyzed within two hours of collection. Results were analyzed within two hours of collection. Results were analyzed by a 2×2 parallel line assay [Gaddum, J. H., J. Pharm.
Assay [2] relates to serum calcium concentration. The following applies: standard salmon calcitonin used in the assay; cited from earlier work.

Consider “[Des-1-Amino, 8-Glycine]salmon calcitonin [[Des-1-Amino, Gly^8]SCT]”, for which the biological potency in assay [1] is on record as 4750 IU/mg.

Regarding “Salmon calcitonin [standard salmon calcitonin]”, in assay [2], the “biological potency of the standard, independently determined” value was “greater than 4,000 IU/mg”.
